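These data come from cells grown in 96-well plates and exposed to compound for 48 hours at five concentrations. GI50 is the concentration that inhibits growth by half. TGI denotes the concentration required for complete inhibition of growth.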
Legend:
Assay in all cases: inhibition of tumour cell growth, NCI panel, 48 h
UO-31 renal = system: UO-31 renal
OVCAR-4 ovarian = system: OVCAR-4 ovarian
SNB-19 CNS = system: SNB-19 CNS
PC-3 prostate = system: PC-3 prostate
UACC-257 melanoma = system: UACC-257 melanoma
SNB-75 CNS = system: SNB-75 CNS
EKVX NSCLC = system: EKVX NSCLC
CCRF-CEM leukemia = system: CCRF-CEM leukemia
OVCAR-5 ovarian = system: OVCAR-5 ovarian
MOLT-4 leukemia = system: MOLT-4 leukemia
HCT-15 colon = system: HCT-15 colon
NCI-H460 lung = system: NCI-H460 lung
TK-10 renal = system: TK-10 renal
UACC-62 melanoma = system: UACC-62 melanoma
RPMI-8226 leukemia = system: RPMI-8226 leukemia
A549 NSCLC = system: A549 NSCLC
K-562 leukemia = system: K-562 leukemia
HS 578T breast = system: HS 578T breast
HCC-2998 colon = system: HCC-2998 colon
NCI-H226 lung = system: NCI-H226 lung
OVCAR-8 ovarian = system: OVCAR-8 ovarian
HOP-62 NSCLC = system: HOP-62 NSCLC
U251 CNS = system: U251 CNS
A498 renal = system: A498 renal
OVCAR-3 ovarian = system: OVCAR-3 ovarian
SR leukemia = system: SR leukemia
HOP-92 NSCLC = system: HOP-92 NSCLC
SF-539 CNS = system: SF-539 CNS
MDA-MB-435 = system: MDA-MB-435
786-0 renal = system: 786-0 renal
DU-145 prostate = system: DU-145 prostate
HT29 colon = system: HT29 colon
IGROV1 ovarian = system: IGROV1 ovarian
CAKI-1 renal = system: CAKI-1 renal
SK-MEL-2 melanoma = system: SK-MEL-2 melanoma
SK-MEL-5 melanoma = system: SK-MEL-5 melanoma
M14 melanoma = system: M14 melanoma
MALME-3M melanoma = system: MALME-3M melanoma
SK-OV-3 ovarian = system: SK-OV-3 ovarian
HL-60(TB) leukemia = system: HL-60(TB) leukemia
RXF 393 renal = system: RXF 393 renal
MDA-MB-231 breast = system: MDA-MB-231 breast
ACHN renal = system: ACHN renal
SW-620 colon = system: SW-620 colon
SF-295 CNS = system: SF-295 CNS
MCF7 breast = system: MCF7 breast
NCI-H522 lung = system: NCI-H522 lung
T-47D breast = system: T-47D breast
SN12C renal = system: SN12C renal
NCI/ADR-RES ovarian = system: NCI/ADR-RES ovarian
NCI-H23 lung = system: NCI-H23 lung
BT-549 breast = system: BT-549 breast
HCT-116 colon = system: HCT-116 colon
LOX IMVI melanoma = system: LOX IMVI melanoma
MDA-MB-468 breast = system: MDA-MB-468 breast

O=C(Nc1ccc(OCC(=O)c2ccc(Cl)cc2)cc1)Nc1ccc(Cl)c(C(F)(F)F)c1
GI50 (UO-31 renal): 3.44 µM | TGI (UO-31 renal): > 100 µM | GI50 (OVCAR-4 ovarian): 5.35 µM | TGI (OVCAR-4 ovarian): 46.1 µM | GI50 (SNB-19 CNS): 4.62 µM | TGI (SNB-19 CNS): 30.1 µM | GI50 (PC-3 prostate): 2900 nM | TGI (PC-3 prostate): > 100 µM | GI50 (UACC-257 melanoma): 3.55 µM | TGI (UACC-257 melanoma): > 100 µM | GI50 (SNB-75 CNS): 2530 nM | TGI (SNB-75 CNS): 45.6 µM | GI50 (EKVX NSCLC): 3.53 µM | TGI (EKVX NSCLC): > 100 µM | GI50 (CCRF-CEM leukemia): 3.95 µM | TGI (CCRF-CEM leukemia): > 100 µM | GI50 (OVCAR-5 ovarian): 7.49 µM | TGI (OVCAR-5 ovarian): > 100 µM | GI50 (MOLT-4 leukemia): 3.6 µM | TGI (MOLT-4 leukemia): > 100 µM | GI50 (HCT-15 colon): 3.17 µM | TGI (HCT-15 colon): > 100 µM | GI50 (NCI-H460 lung): 3.46 µM | TGI (NCI-H460 lung): > 100 µM | GI50 (TK-10 renal): 15.9 µM | TGI (TK-10 renal): > 100 µM | GI50 (UACC-62 melanoma): 3.28 µM | TGI (UACC-62 melanoma): > 100 µM | GI50 (RPMI-8226 leukemia): 3.21 µM | TGI (RPMI-8226 leukemia): > 100 µM | GI50 (A549 NSCLC): 3.69 µM | TGI (A549 NSCLC): > 100 µM | GI50 (K-562 leukemia): 10.4 µM | TGI (K-562 leukemia): > 100 µM | GI50 (HS 578T breast): 4.44 µM | TGI (HS 578T breast): > 100 µM | GI50 (HCC-2998 colon): 3.4 µM | TGI (HCC-2998 colon): > 100 µM | GI50 (NCI-H226 lung): 3.16 µM | TGI (NCI-H226 lung): > 100 µM | GI50 (OVCAR-8 ovarian): 7.17 µM | TGI (OVCAR-8 ovarian): > 100 µM | GI50 (HOP-62 NSCLC): 10.5 µM | TGI (HOP-62 NSCLC): 75.8 µM | GI50 (U251 CNS): 5.48 µM | TGI (U251 CNS): 25.8 µM | GI50 (A498 renal): 3 µM | TGI (A498 renal): 30 µM | GI50 (OVCAR-3 ovarian): 4.12 µM | TGI (OVCAR-3 ovarian): > 100 µM | GI50 (SR leukemia): 13.7 µM | TGI (SR leukemia): > 100 µM | GI50 (HOP-92 NSCLC): 4.07 µM | TGI (HOP-92 NSCLC): 42.1 µM | GI50 (SF-539 CNS): 7.74 µM | TGI (SF-539 CNS): 24.8 µM | GI50 (MDA-MB-435): 6.7 µM | TGI (MDA-MB-435): > 100 µM | GI50 (786-0 renal): 5.8 µM | TGI (786-0 renal): 26.1 µM | GI50 (DU-145 prostate): 7.97 µM | TGI (DU-145 prostate): > 100 µM | GI50 (HT29 colon): 4.75 µM | TGI (HT29 colon): > 100 µM | GI50 (IGROV1 ovarian): 5.85 µM | TGI (IGROV1 ovarian): > 100 µM | GI50 (CAKI-1 renal): 4.1 µM | TGI (CAKI-1 renal): > 100 µM | GI50 (SK-MEL-2 melanoma): 2920 nM | TGI (SK-MEL-2 melanoma): > 100 µM | GI50 (SK-MEL-5 melanoma): 6.19 µM | TGI (SK-MEL-5 melanoma): > 100 µM | GI50 (M14 melanoma): 4.4 µM | TGI (M14 melanoma): > 100 µM | GI50 (MALME-3M melanoma): 3.61 µM | TGI (MALME-3M melanoma): > 100 µM | GI50 (SK-OV-3 ovarian): 14.2 µM | TGI (SK-OV-3 ovarian): > 100 µM | GI50 (HL-60(TB) leukemia): 4.43 µM | TGI (HL-60(TB) leukemia): > 100 µM | GI50 (RXF 393 renal): 3.13 µM | TGI (RXF 393 renal): 9.28 µM | GI50 (MDA-MB-231 breast): 5.93 µM | TGI (MDA-MB-231 breast): 32 µM | GI50 (ACHN renal): 3.75 µM | TGI (ACHN renal): > 100 µM | GI50 (SW-620 colon): 4.67 µM | TGI (SW-620 colon): > 100 µM | GI50 (SF-295 CNS): 3.8 µM | TGI (SF-295 CNS): 32.4 µM | GI50 (MCF7 breast): 5.15 µM | TGI (MCF7 breast): > 100 µM | GI50 (NCI-H522 lung): 3.68 µM | TGI (NCI-H522 lung): > 100 µM | GI50 (T-47D breast): 3.25 µM | TGI (T-47D breast): > 100 µM | GI50 (SN12C renal): 6 µM | TGI (SN12C renal): > 100 µM | GI50 (NCI/ADR-RES ovarian): 4.06 µM | TGI (NCI/ADR-RES ovarian): > 100 µM | GI50 (NCI-H23 lung): 5.83 µM | TGI (NCI-H23 lung): 31.1 µM | GI50 (BT-549 breast): 11.5 µM | TGI (BT-549 breast): 70.3 µM | GI50 (HCT-116 colon): 4.66 µM | TGI (HCT-116 colon): > 100 µM | GI50 (LOX IMVI melanoma): 4.41 µM | TGI (LOX IMVI melanoma): 22.2 µM | GI50 (MDA-MB-468 breast): 2970 nM | TGI (MDA-MB-468 breast): > 100 µM
